Structures are written as SMILES.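 Following 48 hours of exposure in 96-well plates, responses at five concentrations were used to interpolate endpoints linearly. GI50 is the concentration that inhibits growth by half.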 The source made the active and inactive calls. Cut-off read from the data, not from the text of the source: active = GI50 up to about 1.1 µM and inactive = higher.

From ChEMBL document CHEMBL1201862, “PubChem BioAssay data set” (2004) come the findings set out here.

Common to all, as to assay: NCI-60 cell line screen, 48 h
Test [1] deals with IGROV-1.
The subject of test [2] is SN12C.
Test [3] relates to UACC-257.
Test [4] deals with HCC 2998.
For test [5], the system named is SF-268.
For test [6], the system named is ACHN.
Test [7] relates to SR.
For test [8], the system named is HCT-116.
For test [9], the system named is SK-MEL-2.
Test [10] concerns SF-295.
Test [11] deals with SK-MEL-5.
The subject of test [12] is NCI/ADR-RES.
Test [13] relates to DU-145.
Test [14] has as its system MOLT-4.
Test [15] deals with SK-MEL-28.
The subject of test [16] is HL-60.
The subject of test [17] is HOP-62.
Test [18] has as its system U-251.
Test [19] concerns NCI-H460.
For test [20], the system named is NCI-H226.

For `CN1C(=O)C(CC(=O)O)NC1=S` (stereo unspecified), the GI50 in test [1] is 99.5 µM (inactive); in test [2], > 100 µM (inactive); in test [3], > 100 µM (inactive); in [4], > 100 µM (inactive); in [5] it was > 100 µM (inactive); in test [6], > 100 µM (inactive). The GI50 is > 100 µM (inactive) in test [7]; 95.5 µM (inactive) in [8]; > 100 µM (inactive) in test [9]; > 100 µM (inactive) in test [10]; > 100 µM (inactive) in test [11]; > 100 µM (inactive) in test [12]. The GI50 in test [13], in [14], in test [15], in test [16], in test [17] and in test [18] was > 100 µM (inactive) each time. In test [19], the GI50 was > 100 µM (inactive).

In the case of `Nc1ccc(OCCCc2c(-c3ccccc3)[nH]c(N)nc2=O)cc1`, the GI50 was 31 µM (inactive) in [20]; 31.3 µM (inactive) in [1]; 50.7 µM (inactive) in test [2]; 80.5 µM (inactive) in [3]; 22.8 µM (inactive) in test [4]; > 100 µM (inactive) in test [5]. Also, the GI50 in [6] is 33.9 µM (inactive); in [7] it was > 100 µM (inactive); in test [8] it was 29 µM (inactive); in test [10], 34.8 µM (inactive); in test [11], 41.1 µM (inactive); in test [12], > 100 µM (inactive). The GI50 in test [13] is 48.2 µM (inactive); in test [14], 34.5 µM (inactive); in test [15], 27.5 µM (inactive); in [16], 86.9 µM (inactive); in test [17] it was 20.6 µM (inactive); in [18] it was 69.5 µM (inactive). Also, the GI50 in test [19] was 24.6 µM (inactive).

For `COc1cc(Br)cc2cc(-c3cn4ccsc4n3)c(=O)oc12`, the GI50 is 19.9 µM (inactive) in test [1]; 28.1 µM (inactive) in test [2]; 37.6 µM (inactive) in [3]; 7.24 µM (inactive) in test [4]; 34.3 µM (inactive) in [5]; 34.8 µM (inactive) in [6]. The GI50 was 25.9 µM (inactive) in [7]; 25.6 µM (inactive) in [8]; 58.9 µM (inactive) in [9]; 26.8 µM (inactive) in [10]; 19.7 µM (inactive) in test [11]; 34.2 µM (inactive) in test [12]. Besides, the GI50 was 30.5 µM (inactive) in test [13]; 32 µM (inactive) in test [14]; 46.2 µM (inactive) in test [15]; 29 µM (inactive) in test [16]; 29.1 µM (inactive) in [17]; 30 µM (inactive) in test [18]. The GI50 in test [19] is 32 µM (inactive).

With `COc1ccc(-c2ccc(C(=O)C=P(c3ccccc3)(c3ccccc3)c3ccccc3)cc2)cc1`, the GI50 is 12.9 µM (inactive) in [20]; 14.9 µM (inactive) in [2]; 17.7 µM (inactive) in test [3]; 1.79 µM (inactive) in [4]; 24.3 µM (inactive) in test [5]; 13.3 µM (inactive) in test [6]. Further, the GI50 in [7] was 16.2 µM (inactive); in test [8], 12.4 µM (inactive); in test [10], 10.4 µM (inactive); in test [11], 9.64 µM (inactive); in test [12] it was 13 µM (inactive); in test [13], 14.5 µM (inactive). In addition, the GI50 in test [14] was 4.59 µM (inactive); in test [15] it was 14.8 µM (inactive); in test [16] it was 3.94 µM (inactive); in test [17] it was 17.9 µM (inactive); in [18], 13 µM (inactive); in test [19], 8.13 µM (inactive).

Turning to `CCOC(=O)c1[nH]c2cccc3c2c1CC(Br)C3=O` (stereo unspecified), the GI50 is 17.4 µM (inactive) in [20]; 5.86 µM (inactive) in test [1]; 16.7 µM (inactive) in [2]; 14.4 µM (inactive) in [3]; 14.7 µM (inactive) in test [4]; 15.6 µM (inactive) in test [5]. For the same compound, the GI50 in test [6] is 6.98 µM (inactive); in test [7], 2.14 µM (inactive); in [8], 2.48 µM (inactive); in test [10] it was 17.2 µM (inactive); in test [11], 18.5 µM (inactive); in test [12], 15.3 µM (inactive). The GI50 in test [13] is 16.1 µM (inactive); in [14] it was 2.71 µM (inactive); in test [15] it was 20 µM (inactive); in test [16] it was 2.94 µM (inactive); in test [17], 19 µM (inactive); in test [18] it was 14.9 µM (inactive). Also, in test [19], the GI50 is 22.3 µM (inactive).

For `O=C1/C(=C/Cc2ccco2)N=C(c2ccccc2)N1c1nc2c(Cl)cc(Cl)cc2s1`, the GI50 was 29.9 µM (inactive) in test [1]; 27 µM (inactive) in [2]; 34.4 µM (inactive) in test [3]; 31.7 µM (inactive) in test [4]; 40.3 µM (inactive) in test [5]; 24.6 µM (inactive) in [6]. The GI50 was 14.9 µM (inactive) in [7]; 27.7 µM (inactive) in [8]; 23.7 µM (inactive) in test [9]; 32.1 µM (inactive) in [10]; 22.5 µM (inactive) in test [11]; 24.3 µM (inactive) in test [12]. For the same compound, the GI50 in test [13] is 27.4 µM (inactive); in [14], 1.02 µM (active); in test [15] it was 57.1 µM (inactive); in test [16] it was 20.9 µM (inactive); in test [17], 24.8 µM (inactive); in test [18], 27 µM (inactive). Also, in [19], the GI50 was 32.2 µM (inactive).

As to `OC1CN2Cc3cc4c(cc3[C@]13C=C[C@@H](O)CC23)OCO4` (stereo partly specified), the GI50 is > 100 µM (inactive) in test [20]; 18.3 µM (inactive) in [1]; 25.1 µM (inactive) in [2]; 7.89 µM (inactive) in [3]; 29.3 µM (inactive) in test [5]; 7.85 µM (inactive) in test [6]. Further, the GI50 in [7] was 12.4 µM (inactive); in test [8] it was 14.2 µM (inactive); in test [9], 31.6 µM (inactive); in test [10], 33.6 µM (inactive); in test [11], 22.9 µM (inactive); in [12] it was 54.3 µM (inactive). Besides, the GI50 was 8.69 µM (inactive) in [13]; 16.6 µM (inactive) in test [14]; 48.4 µM (inactive) in test [15]; 21.2 µM (inactive) in test [16]; 41.1 µM (inactive) in test [17]; 30.8 µM (inactive) in test [18]. For the same compound, the GI50 in test [19] is 14.4 µM (inactive).

As to `CON(C)C(=O)C(C)NC(=O)OC(C)(C)C` (stereo unspecified), the GI50 in [20], in [1], in [2], in [3], in test [4] and in test [5] was > 100 µM (inactive) in each case. Further, the GI50 in test [6], in [7], in test [8], in test [10], in test [11] and in test [12] was > 100 µM (inactive) each time. Further, the GI50 in test [13], in [14], in [15], in [16], in test [17] and in [18] was > 100 µM (inactive) throughout. Also, the GI50 in [19] is > 100 µM (inactive).
